One data set has as its system WP2 uvrA (pKM101). In words: Ames test, strain WP2 uvrA (pKM101). On the procedure: oxidative metabolism system (S9-mix). The maximum concentration tested and […]
Compound 7a was tested in a bacterial mutation screening assay (Ames test) with Salmonella typhimurium TA1535, TA1537, TA98, TA100 and Escherichia coli WP2uvrA(pKM101) in the presence and absence of an exogenous mammalian […]
The bacterial mutation screening assay was a plate incorporation test carried out as previously described15 and according to current methodology. […]
Background: In the Ames test, an excess of revertant colonies over the control signals mutagenicity.

Data set [1] deals with caspase activity of the L. donovani proteasome. In words: Proteasome activity assay, caspase-like, L. donovani. In kind it is biochemical, Leishmania donovani. On the procedure: k. Proteasome activity assays
Compounds were dispensed into black 384-well assay plates (Greiner) by acoustic dispensing (LabCyte ECHO). For potency determinations, eleven-point, one in three dilution curves were generated, with a top concentration of 100 µM. Three proteasome activities were measured using a commercially available indirect enzyme-based luminescent assay kit (Promega) with Suc-LLVY-aminoluciferin, Z-LRR-aminoluciferin and Z-nLPnLD-aminoluciferin used as substrates for chymotrypsin-like, trypsin-like and caspase-like activities, respectively. In addition to proteasome samples: L. donovani and THP1-enriched proteasomes, commercially available human purified 26S proteasome (Boston Biochem) was also assessed. Proteasome final assay concentration were 0.025 mg/ml for L. donovani and THP1-enriched proteasomes and 1 nM for human purified 26S proteasome. Proteasome solution was added to the plates containing the compounds one hour before adding the proteasome substrate solution.
Substrate solution was then added and after 30 min of incubation luminescent signal was measured in an Envision reader (PerkinElmer).
Cultures of L. donovani axenic amastigotes were diluted to either 8 x 106 or 8 x 107 […]
value. […]
value) were used as negative and positive controls, respectively. […] Protein concentrations were determined by standard Bradford assays and Laemmli sample buffer was added to samples. […]

Regarding `O=C(Nc1ccc(F)c(-c2ccn3c(N4CCOCC4)cnc3n2)c1)N1CCCC1` [Compound 8], the “Mean revertants per plate” value in the data set on WP2 uvrA (pKM101) (with S9-mix, dose level 50 per plate) worked out at 150.5; with WP2 uvrA (pKM101) (with S9-mix, dose level 150 per plate), 164.5; with WP2 uvrA (pKM101) (with S9-mix, dose level 500 per plate), 143.5; with WP2 uvrA (pKM101) (with S9-mix, dose level 1500 per plate), 139.0; in the data set on WP2 uvrA (pKM101) (with S9-mix, dose level 2500 per plate), 130.5; with WP2 uvrA (pKM101) (with S9-mix, dose level 5000 per plate) it was 133.5. Also, the “Mean revertants per plate” value in the data set on WP2 uvrA (pKM101) (without S9-mix, dose level 50 per plate) is reported as 90.0; in the data set with WP2 uvrA (pKM101) (without S9-mix, dose level 150 per plate), 84.5; in the data set with WP2 uvrA (pKM101) (without S9-mix, dose level 500 per plate) it was 80.5; in the data set with WP2 uvrA (pKM101) (without S9-mix, dose level 1500 per plate) it was 87.5; with WP2 uvrA (pKM101) (without S9-mix, dose level 2500 per plate), 91.5; in the data set on WP2 uvrA (pKM101) (without S9-mix, dose level 5000 per plate), 82.0. The “effect on caspase activity” value in data set [1] is recorded as “no effect”.

Values taken from PMC6511062, “Preclinical candidate for the treatment of visceral leishmaniasis that acts through proteasome inhibition” (Proceedings of the National Academy of Sciences of the …, 2019).
